Experimental data reported in article PMC8270334, “Design, Sustainable Synthesis and Biological Evaluation of a Novel Dual α2A/5-HT7 Receptor Antagonist with Antidepressant-Like Properties” (Molecules, 2021).

Tests used:
human 5-HT2A receptor = molecular target: T1, human 5-HT2A receptor (Homo sapiens, UniProt P28223); assay: radioligand binding, [3H]-ketanserin displacement at 5-HT2AR in CHO-K1 cells; conditions: ± SEM; footnote HEK-293 cells, method CHO-K1 cells
T1 construct: host or cells: CHO-K1
Procedure: (§1) All experiments were performed using HEK293 cells stably expressing human 5-HT1A, 5-HT6, 5-HT7b, and D2L receptors or CHO-K1 cells with a plasmid containing the human 5-HT2A receptor coding sequence (PerkinElmer, Waltham, MA, USA), according to previously reported procedures. Cells were cultured in 150 cm^2 flasks and, after reaching a 90% confluence, were washed with PBS and the centrifugated (200 g) in PBS containing 0.1 mM EDTA and 1 mM dithiothreitol. Cell pellets were subsequently homogenized (in Ultra Turrax tissue homogenizer) and centrifugated twice (35,000× g for 15 min at 4 °C), with 15 min incubation at 37 °C between the centrifugations. All assays were incubated in dedicated buffers and in a total volume of 200 µL in 96-well microtitre plates for 1 h at 37 °C, except for 5-HT1AR and 5-HT2AR that was incubated for 1 h at room temperature. The process of equilibration is terminated by rapid filtration through Unifilter-96 (PerkinElmer) plates with a 96-well cell harvester and radioactivity retained on the filters was quantified on a Microbeta plate reader (PerkinElmer, USA). For displacement studies, the following assay samples containing the proper radioligand were used: 2.5 nM [^3H]-8-OH-DPAT (PerkinElmer, #NET929001MC) for 5-HT1AR; 1 nM [^3H]-ketanserin (PerkinElmer, #NET791250UC) for 5-HT2AR; 2 nM [^3H]-LSD (PerkinElmer, #NET638250UC) for 5-HT6R; and 0.8 nM [^3H]-5-CT (PerkinElmer, #NET1188U100UC) for 5-HT7R or 2.5 nM [^3H]-raclopride (PerkinElmer, #NET975001MC) for D2LR. Non-specific binding was determined using 10 μM 5-HT for 5-HT1AR and 5-HT7R, 20 μM mianserin for 5-HT2AR, 10 μM methiothepine for 5-HT6R, and 10 μM haloperidol for D2LR. […] Results were expressed as means of at least three separate experiments.

α1-AR = assay: radioligand binding, displacement of [3H]prazosin from α1-adrenoreceptors; conditions: rat cerebral cortex, ± SEM
Procedure: The brains were homogenized in 20 volumes of ice-cold 50 mM Tris–HCl buffer (pH 7.6) and centrifuged at 20,000 × g for 20 min (0–4 °C). The cell pellet was resuspended in the Tris–HCl buffer and centrifuged again. Radioligand binding assays were performed in plates (MultiScreen/Millipore). […] The incubation was terminated by rapid filtration over glass fibre filters (Whatman GF/C) using a vacuum manifold (Millipore). The filters were then washed twice with the assay buffer and placed in scintillation vials with a liquid scintillation cocktail. Radioactivity was measured in a WALLAC 1409 DSA liquid scintillation counter. All assays were made in duplicate.

human 5-HT1A receptor = molecular target: T2, human 5-HT1A receptor (Homo sapiens, UniProt P08908); assay: radioligand binding, [3H]-8-OH-DPAT displacement at 5-HT1AR in HEK293 cells; conditions: HEK-293 cells, ± SEM
T2 construct: expressed in transfected cells; host or cells: HEK293
T2 sequence (P08908 1-422): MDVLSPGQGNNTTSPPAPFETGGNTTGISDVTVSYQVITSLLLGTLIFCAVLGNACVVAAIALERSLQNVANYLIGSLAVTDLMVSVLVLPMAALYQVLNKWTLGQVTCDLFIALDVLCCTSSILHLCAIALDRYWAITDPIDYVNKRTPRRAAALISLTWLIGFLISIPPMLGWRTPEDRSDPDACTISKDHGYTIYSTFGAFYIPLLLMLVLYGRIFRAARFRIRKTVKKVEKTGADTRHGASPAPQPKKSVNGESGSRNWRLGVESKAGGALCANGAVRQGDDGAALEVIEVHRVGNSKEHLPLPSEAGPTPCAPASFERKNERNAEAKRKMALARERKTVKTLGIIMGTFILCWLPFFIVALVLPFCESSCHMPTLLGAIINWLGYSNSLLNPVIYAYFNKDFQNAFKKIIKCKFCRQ
Procedure: as §1

Albino Swiss mice [1] = assay: forced swim test; format: in vivo; conditions: ip; for shortening of immobility in FST in comparison to control: dose range 1–8 mg/kg; for shortening of immobility in FST in comparison to control / active dose in FST (antidepressant-like effect): 30 min before test
Procedure: Adult male Albino Swiss mice (CD-1, 8 weeks old, 25–30 g: Jagiellonian University Medical College, Krakow, Poland) were used in the study. Animals were housed in groups of 8 in a transparent plastic cage (382 × 220 × 150 mm) at room temperature (22 ± 2 °C), on a 12 h light/dark cycle with ad libitum access to food and water. Mice were handled for one week before starting the experimental procedures. The separate groups of animals were used in the forced swim test and in the locomotor studies. All studies were approved by the Institutional Animal Care and Ethics Committee of the Jagiellonian University (approval no.: 80/2015). […] Tested compounds were dissolved with 1% Tween 80. […] The control animals were given ip injections of the 2% DMSO in 1% Tween 80 (vehicle). The volume of vehicle or drug solutions was 10 mL/kg. The experiment was performed on mice according to the method previously described. Mice were forced to swim individually in the glass cylinders (height 25 cm, diameter 10 cm) filled with water at 24 ± 1 °C to a depth of 10 cm and left there for 6 min. Following a 2 min habituation period, total time spent immobile was recorded over the next 4 min. The animal was regarded as immobile when it remained floating passively in the water, making only small movements to keep its head above the water.

Albino Swiss mice [2] = assay: spontaneous locomotor activity; format: in vivo; conditions: ip
Procedure: Adult male Albino Swiss mice (CD-1, 8 weeks old, 25–30 g: Jagiellonian University Medical College, Krakow, Poland) were used in the study. Animals were housed in groups of 8 in a transparent plastic cage (382 × 220 × 150 mm) at room temperature (22 ± 2 °C), on a 12 h light/dark cycle with ad libitum access to food and water. Mice were handled for one week before starting the experimental procedures. The separate groups of animals were used in the forced swim test and in the locomotor studies. All studies were approved by the Institutional Animal Care and Ethics Committee of the Jagiellonian University (approval no.: 80/2015).
Tested compounds were dissolved with 1% Tween 80. […] The control animals were given ip injections of the 2% DMSO in 1% Tween 80 (vehicle). The volume of vehicle or drug solutions was 10 mL/kg.
Locomotor activity was recorded with an Opto M3 multichannel activity monitor, photoresistor actometers connected to a counter for the recording of light-beam interruptions (MultiDevice Software v1.3, Columbus Instruments, Columbus, OH, USA). The mice, after being placed into the cages individually, had their activity evaluated between the 2nd and the 6th minute. The chosen time period corresponded with the time interval considered in the FST. Spontaneous locomotor activity was evaluated as the distance travelled plus the movements of climbing by animals.

5-HT1AR = molecular target: T3, 5-HT1AR (Homo sapiens, UniProt P08908); assay: functional profiling at 5-HT1AR, cAMP-based assays (Eurofins); format: cell-based; conditions: cAMP-based assay; for 5-HT1AR antagonist property: at 1 µM; for EC50: read-out: 5-HT1AR agonist activity EC50
T3 construct: Eurofins Scientific, France
T3 sequence (P08908 1-422): T2 sequence (P08908 1-422)

[3] = doses effective in the FST (6: 4, 8 mg/kg; mirtazapine: 16 mg/kg)

T1 sequence (P28223 whole entry): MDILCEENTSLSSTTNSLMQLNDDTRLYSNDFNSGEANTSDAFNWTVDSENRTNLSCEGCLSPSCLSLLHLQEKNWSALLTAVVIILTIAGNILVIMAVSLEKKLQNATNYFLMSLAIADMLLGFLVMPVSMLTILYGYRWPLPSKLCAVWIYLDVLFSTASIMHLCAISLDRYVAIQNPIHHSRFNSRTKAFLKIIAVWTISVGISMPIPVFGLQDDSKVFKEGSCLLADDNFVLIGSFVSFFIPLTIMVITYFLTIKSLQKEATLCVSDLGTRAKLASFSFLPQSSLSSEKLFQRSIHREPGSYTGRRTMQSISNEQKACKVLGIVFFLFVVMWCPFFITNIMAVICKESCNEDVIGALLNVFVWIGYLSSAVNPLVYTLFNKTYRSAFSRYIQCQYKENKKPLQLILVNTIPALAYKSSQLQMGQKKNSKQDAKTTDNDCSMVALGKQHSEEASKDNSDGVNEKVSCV

| SMILES | Ki (human 5-HT2A receptor) [nM] | Ki (α1-AR) [nM] | Ki (human 5-HT1A receptor) [nM] | shortening of immobility in FST in comparison to control (Albino Swiss mice [1]) | active dose in FST (antidepressant-like effect) (Albino Swiss mice [1]) [mg/kg] | influence on spontaneous locomotor activity (sedation) (Albino Swiss mice [2]; [3]) | 5-HT1AR antagonist property (5-HT1AR) | EC50 (5-HT1AR) [nM] | effect in the FST (Albino Swiss mice [1]; doses of 4 and 8 mg/kg) | influence on spontaneous locomotor activity (sedation) (Albino Swiss mice [2]; 1 mg/kg) | influence on spontaneous locomotor activity (sedation) (Albino Swiss mice [2]; higher doses (above 1 mg/kg)) |
| --- | --- | --- | --- | --- | --- | --- | --- | --- | --- | --- | --- |
| CC1(C)Cc2cccc(OCCN3CCC(NS(=O)(=O)c4cc(Cl)ccc4F)CC3)c2O1 [Compound 8, 5-Chloro-2-fluoro-N-{1-[2-(2,2-dimethyl-2,3-dihydrobenzofuran-7-yloxy)ethyl]piperidin-4-yl}benzenesulfonamide] | 1420 ± 98 | 1260 ± 101 | 260 ± 29 | about 25% | 4 | no influence on the spontaneous locomotor activity | no antagonist property | > 4000 |  |  |  |
| CC1(C)Cc2cccc(OCCN3CCC(NS(=O)(=O)c4ccc(F)cc4)CC3)c2O1 [Compound 6, 4-Fluoro-N-{1-[2-(2,2-dimethyl-2,3-dihydrobenzofuran-7-yloxy)ethyl]piperidin-4-yl} benzenesulfonamide] | 538 ± 38 | 761 ± 86 | 221 ± 25 | about 25% | 8 | induced sedation | no antagonist property | > 4000 |  |  |  |
| CC1(C)Cc2cccc(OCCN3CCC(NS(=O)(=O)c4cncc5ccccc45)CC3)c2O1 [Compound 13, 4-Isoquinoline-N-{1-[2-(2,2-dimethyl-2,3-dihydrobenzofuran-7-yloxy)ethyl]piperidin-4-yl}sulfonamide] | 1420 ± 105 | 429 ± 66 | 260 ± 18 | about 25% | 1 |  | no antagonist property | > 4000 | lack of pharmacological effect | without affecting locomotor activity | caused sedation |
